# Measured values: ChEMBL document CHEMBL1201862, “PubChem BioAssay data set” (2004)
# The source made the active and inactive calls.
# Experiments:
# fMet-Leu-Phe receptor = biological target: T1, fMet-Leu-Phe receptor (Homo sapiens, UniProt P21462); assay: formyl peptide receptor binders – dose response (AID 519); format: functional
# T1 sequence (P21462 whole entry): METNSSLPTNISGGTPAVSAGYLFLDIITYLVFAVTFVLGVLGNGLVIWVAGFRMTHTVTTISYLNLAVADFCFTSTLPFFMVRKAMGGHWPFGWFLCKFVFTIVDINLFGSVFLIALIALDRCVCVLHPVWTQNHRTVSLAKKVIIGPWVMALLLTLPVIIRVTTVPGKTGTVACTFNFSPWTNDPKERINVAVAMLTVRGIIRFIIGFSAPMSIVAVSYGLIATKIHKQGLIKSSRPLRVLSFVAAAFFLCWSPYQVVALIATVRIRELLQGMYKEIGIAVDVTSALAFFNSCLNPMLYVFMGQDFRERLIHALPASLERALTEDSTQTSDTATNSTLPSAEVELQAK
# [1] = Trypanosoma cruzi growth suppression in host cells – NIH3T3 host cells, beta-gal luminescence, confirmation (AID 2044); format: functional, cell-based;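 further: intracellular parasites grown in NIH/3T3 mouse fibroblasts as host cells; luminescent beta-galactosidase reporter signal from transgenic T. cruzi replicating inside host cells; inhibitors lower the luminescence signal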
# [2] = NIH3T3 cell viability loss – ATP luminescence, mouse fibroblasts, counter-screen, dose response (AID 2010); format: functional, cell-based;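 further: cells exposed to compound for about 90 hours before reading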
# [3] = M. tuberculosis H37Rv growth inhibitors, H37Rv strain (AID 1626); format: functional
# [4] = viability loss in Vero cells – cytotoxicity control for Vif-APOBEC3G degradation inhibitor project, dose response (AID 1117358); format: functional; conditions: Vero
# [5] = biological target: Voltage-gated inwardly rectifying potassium channel KCNH2 (Homo sapiens, UniProt Q12809); assay: concentration-dependent hERG rescue from blockers – cell-based, thallium flux, dose response (AID 2121); format: ADME
# Sequence of Voltage-gated inwardly rectifying potassium channel KCNH2 (Q12809 whole entry): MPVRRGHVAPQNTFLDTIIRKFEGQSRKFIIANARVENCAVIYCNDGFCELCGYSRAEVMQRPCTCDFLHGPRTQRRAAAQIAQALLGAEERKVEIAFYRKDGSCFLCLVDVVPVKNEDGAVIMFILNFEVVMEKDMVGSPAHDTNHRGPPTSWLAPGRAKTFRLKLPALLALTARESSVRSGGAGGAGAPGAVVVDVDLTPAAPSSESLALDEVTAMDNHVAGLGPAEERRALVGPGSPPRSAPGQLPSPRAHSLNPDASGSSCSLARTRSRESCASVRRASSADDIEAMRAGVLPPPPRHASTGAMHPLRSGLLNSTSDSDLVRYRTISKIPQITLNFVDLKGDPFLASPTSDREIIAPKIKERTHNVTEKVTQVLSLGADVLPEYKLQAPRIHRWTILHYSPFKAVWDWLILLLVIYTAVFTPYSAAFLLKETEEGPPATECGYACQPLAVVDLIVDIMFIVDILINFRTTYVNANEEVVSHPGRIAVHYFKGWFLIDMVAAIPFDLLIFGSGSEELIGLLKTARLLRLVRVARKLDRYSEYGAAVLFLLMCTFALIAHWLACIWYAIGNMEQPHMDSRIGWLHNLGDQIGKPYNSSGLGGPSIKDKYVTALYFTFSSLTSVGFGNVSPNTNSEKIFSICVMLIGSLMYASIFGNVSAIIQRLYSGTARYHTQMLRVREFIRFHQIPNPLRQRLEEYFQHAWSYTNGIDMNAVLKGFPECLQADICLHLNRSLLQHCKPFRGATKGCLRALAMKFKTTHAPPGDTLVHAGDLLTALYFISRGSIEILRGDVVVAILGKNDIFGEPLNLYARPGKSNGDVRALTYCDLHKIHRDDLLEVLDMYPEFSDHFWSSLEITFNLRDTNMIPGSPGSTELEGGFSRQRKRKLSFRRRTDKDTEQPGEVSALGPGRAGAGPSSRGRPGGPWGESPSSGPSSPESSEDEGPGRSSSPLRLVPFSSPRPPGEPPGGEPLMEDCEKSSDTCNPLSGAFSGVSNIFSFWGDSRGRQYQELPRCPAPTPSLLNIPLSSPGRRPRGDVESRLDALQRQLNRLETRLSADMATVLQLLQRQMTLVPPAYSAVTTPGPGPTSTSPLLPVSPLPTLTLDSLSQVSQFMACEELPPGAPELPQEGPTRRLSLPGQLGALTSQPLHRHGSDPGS
# Caspase-6 = biological target: T2, Caspase-6 (Homo sapiens, UniProt P55212); assay: inhibition of CASP6 peptide cleavage – biochemical, VEID-R110 fluorescence, cherry-pick, dose response (AID 720632)
# T2 sequence (P55212 whole entry): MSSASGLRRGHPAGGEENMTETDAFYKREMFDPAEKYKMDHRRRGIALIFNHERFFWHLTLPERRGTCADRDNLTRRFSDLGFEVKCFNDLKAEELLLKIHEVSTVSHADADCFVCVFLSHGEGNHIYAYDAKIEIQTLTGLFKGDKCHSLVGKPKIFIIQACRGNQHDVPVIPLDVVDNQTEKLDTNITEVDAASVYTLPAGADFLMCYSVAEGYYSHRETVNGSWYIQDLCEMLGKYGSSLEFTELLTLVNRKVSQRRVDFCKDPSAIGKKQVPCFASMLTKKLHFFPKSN
# [6] = reduction of Shn3 3'UTR-driven luciferase in osteoblasts – cell-based, Clone20 osteoblasts, firefly luciferase, cherry-picked, dose response (AID 624132); format: functional;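 further: firefly luciferase luminescence from reporter carrying the Shn3 3'UTR in osteoblasts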
# [7] = loss of viability in HepG2 cells – cell-based, CellTiter-Glo, cherry-picked, cytotoxicity control for Shn3 inhibitor project, dose response (AID 624134); format: functional
# Protein Wnt-3a = Protein Wnt-3a (Mus musculus, UniProt P27467); assay: antagonism of Wnt3a pathway luciferase reporter – Wnt-LIGHT cells, luminescence, selectivity assay for Gli-SUFU antagonist project, dose response (AID 651570); format: functional; conditions: read-out: IC50_Mean;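 further: Wnt-LIGHT reporter cells stimulated with conditioned medium from Wnt3a-producing cells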
# Sequence of Protein Wnt-3a (P27467 whole entry): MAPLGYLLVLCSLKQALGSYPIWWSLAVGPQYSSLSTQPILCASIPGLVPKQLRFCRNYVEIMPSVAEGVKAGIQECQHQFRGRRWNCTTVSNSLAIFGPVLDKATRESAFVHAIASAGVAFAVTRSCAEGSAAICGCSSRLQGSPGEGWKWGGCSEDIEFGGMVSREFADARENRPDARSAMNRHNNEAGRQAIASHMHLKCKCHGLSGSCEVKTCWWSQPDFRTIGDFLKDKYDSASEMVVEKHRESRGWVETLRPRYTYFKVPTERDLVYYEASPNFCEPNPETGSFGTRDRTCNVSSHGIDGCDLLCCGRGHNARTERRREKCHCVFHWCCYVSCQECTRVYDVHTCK
# [8] = biological target: T3, COUP transcription factor 2 (Homo sapiens, UniProt P24468); assay: Luminescence-based cell-based high throughput dose response assay to identify inhibitors of COUP-TFII (NR2F2).; format: functional;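 further: HEK293 cells transiently cotransfected with COUP-TFII expression vector and reporter; luciferase reporter luminescence driven by COUP-TFII from the pX2-168 reporter plasmid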
# T3 sequence (P24468 whole entry): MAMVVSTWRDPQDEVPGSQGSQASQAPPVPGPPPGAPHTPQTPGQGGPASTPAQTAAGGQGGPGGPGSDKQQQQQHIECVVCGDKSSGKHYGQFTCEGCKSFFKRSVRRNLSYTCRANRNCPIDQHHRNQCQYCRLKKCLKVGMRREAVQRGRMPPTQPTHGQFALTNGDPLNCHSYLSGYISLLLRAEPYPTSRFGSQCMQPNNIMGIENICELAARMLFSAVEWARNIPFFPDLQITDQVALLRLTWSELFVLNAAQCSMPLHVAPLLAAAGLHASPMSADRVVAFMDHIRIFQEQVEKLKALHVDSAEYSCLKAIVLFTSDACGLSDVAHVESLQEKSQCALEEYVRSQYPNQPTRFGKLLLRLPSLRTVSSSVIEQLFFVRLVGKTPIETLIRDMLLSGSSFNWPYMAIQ
# [9] = Luminescence-based cell-based high throughput dose response assay to identify activators of the DAF-12 from the parasite S. stercoralis (ssDAF-12).; format: functional
# [10] = biological target: T4, Oxysterols receptor LXR-beta (Homo sapiens, UniProt P55055); assay: LXR agonists, Gal4 luciferase reporter, dose response, counter-screen for ssDAF-12 agonist project, cell-based, luminescence, HEK293, S. stercoralis campaign (AID 720737); format: functional; conditions: read-out: IC50 (the source's name)
# T4 sequence (P55055 whole entry): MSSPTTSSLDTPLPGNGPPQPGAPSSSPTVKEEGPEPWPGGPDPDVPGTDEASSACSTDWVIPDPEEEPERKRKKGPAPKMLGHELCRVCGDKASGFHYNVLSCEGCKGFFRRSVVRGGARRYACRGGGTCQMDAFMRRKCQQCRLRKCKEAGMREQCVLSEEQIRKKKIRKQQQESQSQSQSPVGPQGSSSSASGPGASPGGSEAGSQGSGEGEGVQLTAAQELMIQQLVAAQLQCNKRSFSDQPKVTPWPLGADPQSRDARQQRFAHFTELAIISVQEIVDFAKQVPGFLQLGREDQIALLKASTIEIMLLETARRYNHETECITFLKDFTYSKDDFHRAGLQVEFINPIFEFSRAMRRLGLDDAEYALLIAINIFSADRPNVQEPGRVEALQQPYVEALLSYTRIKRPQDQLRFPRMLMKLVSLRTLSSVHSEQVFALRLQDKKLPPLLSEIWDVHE
# [11] = biological target: Disintegrin and metalloproteinase domain-containing protein 17 (Homo sapiens, UniProt P78536); assay: inhibition of ADAM17 substrate cleavage – biochemical, quenched FRET substrate, counter-screen for ADAM10 exosite inhibitor project, dose response (AID 743253)
# Sequence of Disintegrin and metalloproteinase domain-containing protein 17 (P78536 whole entry, the tested form may be a part): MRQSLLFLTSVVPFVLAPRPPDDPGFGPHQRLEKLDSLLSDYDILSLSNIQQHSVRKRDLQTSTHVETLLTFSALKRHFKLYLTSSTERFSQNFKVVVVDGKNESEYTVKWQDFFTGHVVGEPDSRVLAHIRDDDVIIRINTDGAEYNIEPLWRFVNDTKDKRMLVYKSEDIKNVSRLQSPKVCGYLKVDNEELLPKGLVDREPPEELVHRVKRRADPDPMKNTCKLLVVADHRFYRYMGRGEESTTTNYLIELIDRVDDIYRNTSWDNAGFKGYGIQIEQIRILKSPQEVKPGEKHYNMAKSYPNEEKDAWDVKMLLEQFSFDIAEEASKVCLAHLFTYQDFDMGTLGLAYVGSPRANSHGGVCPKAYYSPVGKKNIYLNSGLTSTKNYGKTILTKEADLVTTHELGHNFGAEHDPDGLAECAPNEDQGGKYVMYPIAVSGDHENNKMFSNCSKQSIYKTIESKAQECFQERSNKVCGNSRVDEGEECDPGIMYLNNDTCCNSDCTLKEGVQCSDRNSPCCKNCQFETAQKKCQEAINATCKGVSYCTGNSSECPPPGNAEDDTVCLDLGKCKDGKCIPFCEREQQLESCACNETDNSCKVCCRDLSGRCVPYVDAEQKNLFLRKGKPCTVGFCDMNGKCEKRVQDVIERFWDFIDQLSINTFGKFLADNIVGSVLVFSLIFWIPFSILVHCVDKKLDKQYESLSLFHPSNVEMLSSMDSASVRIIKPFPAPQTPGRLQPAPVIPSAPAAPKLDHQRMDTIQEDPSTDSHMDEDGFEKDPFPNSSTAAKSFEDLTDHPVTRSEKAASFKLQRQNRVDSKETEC
# [12] = biological target: FAD-linked sulfhydryl oxidase ALR (Homo sapiens, UniProt P55789); assay: ALR-catalysed DTT oxidation blockers – biochemical, H2O2 detection, luminescence, cherry-pick, dose response (AID 493248)
# Sequence of FAD-linked sulfhydryl oxidase ALR (P55789 whole entry): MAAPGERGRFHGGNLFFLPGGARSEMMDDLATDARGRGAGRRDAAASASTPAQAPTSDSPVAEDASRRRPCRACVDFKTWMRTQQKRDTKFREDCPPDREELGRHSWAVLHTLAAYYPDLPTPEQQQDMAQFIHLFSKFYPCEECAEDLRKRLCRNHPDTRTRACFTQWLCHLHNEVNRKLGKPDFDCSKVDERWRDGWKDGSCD
# [13] = biological target: T5, Rac GTPase-activating protein 1 (Homo sapiens, UniProt Q9H0H5); assay: blockers of MgcRacGAP-driven Rac1 GTP hydrolysis – biochemical, ADP Hunter fluorescence, primary and confirmatory, confirmation (AID 624330); format: functional
# T5 sequence (Q9H0H5 whole entry): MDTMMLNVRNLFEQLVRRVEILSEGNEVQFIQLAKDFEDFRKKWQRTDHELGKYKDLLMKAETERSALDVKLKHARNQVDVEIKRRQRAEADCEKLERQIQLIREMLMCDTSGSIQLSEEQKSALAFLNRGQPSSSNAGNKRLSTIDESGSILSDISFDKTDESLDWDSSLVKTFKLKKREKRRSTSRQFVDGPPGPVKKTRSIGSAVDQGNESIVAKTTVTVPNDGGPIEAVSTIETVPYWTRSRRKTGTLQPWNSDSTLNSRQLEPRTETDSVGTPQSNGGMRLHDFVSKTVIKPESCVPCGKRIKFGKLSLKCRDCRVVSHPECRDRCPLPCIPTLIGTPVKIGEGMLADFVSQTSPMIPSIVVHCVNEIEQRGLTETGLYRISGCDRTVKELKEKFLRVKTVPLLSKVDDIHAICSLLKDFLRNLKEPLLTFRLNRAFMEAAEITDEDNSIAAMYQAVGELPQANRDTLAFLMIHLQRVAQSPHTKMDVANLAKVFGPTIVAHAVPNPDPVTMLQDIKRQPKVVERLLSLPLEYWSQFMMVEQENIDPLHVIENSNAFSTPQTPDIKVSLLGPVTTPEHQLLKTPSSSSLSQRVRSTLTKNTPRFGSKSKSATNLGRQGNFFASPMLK
# [14] = A549 cell cytotoxicity, dose response, cytotoxicity control, plate reader, cherry-pick, antagonist series (AID 743412); format: functional, cell-based
# [15] = blockers of bursicon-stimulated LGR2 cAMP reporter – cell-based, HEK293, CRE-luciferase reporter, cherry pick, set 2, dose response (AID 743343); format: functional;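 further: transfected cells were stimulated with diluted bursicon conditioned medium after compound addition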
# [16] = blockade of melanocortin 4 receptor signaling – cell-based, plate reader, cherry pick, counter-screen for LGR2 antagonist project, dose response (AID 743444); format: functional;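 further: transfected HEK 293 cells stimulated with alpha-MSH peptide; potency of inhibitors of the alpha-MSH evoked signal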
# [17] = viability loss in HEK293 cells – cell-based, plate reader, cherry-picked samples, cytotoxicity control, dose response (AID 743446); format: functional
# [18] = P. falciparum Dd2 growth inhibitors, dose response, SYBR Green, cherry-picked samples (AID 1159567); format: functional, cell-based
# [19] = toxicity to human hepatoma HepG2 cells – cell-based, cherry-picked samples, cytotoxicity control, dose response (AID 1159577); format: functional
# [20] = Luminescence Cell-Based Dose Retest to Confirm Inhibitors of Cancer Stem Cells. [Related pubchem assays (depositor defined):AID2717, AID2721]; format: functional; conditions: Homo sapiens
# INS1 = assay: INS-1E survival protection against cytokine death – cell-based, luminescence, retest, dose response (AID 449756); format: functional; conditions: Rattus norvegicus;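 further: cell death triggered by IL-1 beta plus TNF-alpha plus IFN-gamma mixture; protective hits raise ATP signal compared with cytokine alone wells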
# [21] = non-specific 3'UTR reporter inhibition in Clone20-Shn3RL – cell-based, Renilla luciferase, cherry-picked, counter-screen for Shn3 inhibitor project, dose response (AID 624133); format: functional
# [22] = NIH-3T3 fibroblast cytotoxicity, dose response, cytotoxicity control, cell-based, fluorescence, Alamar Blue, secondary assay (AID 2327); format: functional;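 further: NIH-3T3 mouse fibroblasts cultured with fluconazole at 8 µg/mL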
# [23] = system: Streptococcus sp. 'group A'; assay: Streptococcus pyogenes SK(-)GAS viability under kanamycin – luminescence, BacTiterGlo, confirmation, counter-screen for streptokinase expression inhibitor project, dose response (AID 1900); format: functional, organism-based
# [24] = fluconazole-exposed Candida albicans growth modulators – fluorescence, retest, confirmation (AID 2467); format: functional, cell-based
# Streptococcus = assay: GAS UMAA2166 growth inhibition – luminescence, BacTiterGlo, counter-screen for streptokinase expression inhibitor project, dose response (AID 1915); format: functional, organism-based;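 further: potency for reduction of bacterial viability or growth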
structure (smiles),measurement,setting,value
COC(=O)c1[nH]c(C)c(C(=O)C2=C(O)C(=O)N(CCN3CCOCC3)C2c2cccnc2)c1C (stereo unspecified),Ki,fMet-Leu-Phe receptor,20.8 µM (inactive)
O=C(CCC1CCCN(Cc2cccc(Cl)c2)C1)NCc1ccccc1F (stereo unspecified),EC50,[1],< 0.1 µM (active)
same,EC50,[2],> 30 µM (not active)
same,EC50,cells,0.045 µM (active)
Cc1nc(SCc2ccccc2F)c2oc3ccccc3c2n1,IC50,[3],> 100 µM (active)
O=C(C1=C(O)C(=O)N(c2ncccn2)C1c1ccc(Cl)c(Cl)c1)c1ccco1 (stereo unspecified),Ki,fMet-Leu-Phe receptor,> 66.7 µM (inactive)
c1ccc(-c2cc(-c3nnc4n3N=C(c3ccc5ccccc5c3)CS4)n[nH]2)cc1,EC50,[1],1.63 µM (active)
same,EC50,[2],7.45 µM (active)
same,CC50,[4],> 40 µM (active)
Cc1ccc(NC(S)=NNc2ncc(C(F)(F)F)cc2Cl)cc1,CC50,[4],> 40 µM (active)
C=C(C)CN=C(S)NN=C1c2ccccc2-c2ccccc21,EC50,[5],0.95 µM (active)
CC(C)(C)c1ccc(C(=O)Nn2c(CCC(=O)O)ccc2-c2cccs2)cc1,AC50,Caspase-6,45.1 µM (active)
O=C(Nc1nnc(Cc2c[nH]c3ccccc23)s1)c1ccc(Cl)cc1Cl,AC50,Caspase-6,49.2 µM (active)
CCOc1ccc(NC(=O)CSc2ccccc2N)cc1,IC50,[3],> 100 µM (active)
Cc1ccc2nc(N(CCCN(C)C)C(=O)c3ccc(S(=O)(=O)N4CCOCC4)cc3)sc2c1,EC50,[1],< 0.1 µM (active)
same,EC50,[2],10.8 µM (active)
same,EC50,cells,0.007 µM (active)
CC(=O)c1cccc(NS(=O)(=O)c2ccc(-c3cnc(C4CC4)o3)cc2)c1,AC50,[6],5 µM (active)
same,AC50,[7],47.3 µM (active)
same,IC50,Protein Wnt-3a,6.03 µM (active)
same,IC50,[8],12.3 µM (inactive)
COc1cc(-c2nnc(O)o2)cc(OC)c1OC,CC50,[4],> 40 µM (active)
CC1=NN(C(=O)CCc2ccc3c(c2)OCO3)C(O)(C(F)(F)F)C1 (stereo unspecified),IC50,[9],> 67.5 µM (inactive)
same,EC50,[10],> 67.5 µM (inactive)
COc1ccc(-c2ccc(-c3noc(-c4cccc(OC)c4)n3)c(OC)n2)cc1,IC50,[11],> 69.5 µM (inactive)
CC(=O)N1CCN(c2ccc(N)cc2)CC1,AC50,[12],1.06 µM (active)
same,IC50,[13],16.2 µM (active)
same,AC50,Caspase-6,11.1 µM (active)
c1ccc(Cc2c(-c3ccco3)nc3c4ccccc4ccn23)cc1,IC50,[9],> 67.5 µM (inactive)
same,EC50,[10],> 67.5 µM (inactive)
Cc1cccc(-c2ccc([C@H]3[C@@H](CO)N4CCCCN(C(=O)c5ccncc5)C[C@@H]34)cc2)c1,AC50,[14],> 52 µM (inactive)
same,AC50,[15],8.82 µM (active)
same,AC50,[16],9.6 µM (active)
same,AC50,[17],> 52 µM (inactive)
Cc1ccc(/C=N/Nc2ccc(C(=O)O)cc2)o1,EC50,[5],11 µM (active)
same,AC50,[12],2.79 µM (active)
Cc1ccc(-c2ccc([C@@H]3[C@H](CO)N4CCCCN(S(=O)(=O)c5ccccc5C)C[C@@H]34)cc2)cc1,AC50,[18],0.589 µM (active)
same,AC50,[19],11 µM (active)
CCC(=O)N1[C@H](CO)[C@H](c2ccc(C3=CCCC3)cc2)[C@H]1CNC1CCCC1,AC50,[18],5.63 µM (active)
same,AC50,[19],> 42 µM (inactive)
Oc1ccc(CCNc2ncnc3ccc(Cl)cc23)cc1,AC50,[20],1.57 µM (active)
same,AC50,INS1,3.73 µM (active)
same,AC50,[6],0.551 µM (active)
same,AC50,[7],43 µM (active)
same,AC50,[21],0.942 µM (active)
same,IC50,[8],5.5 µM (active)
CC(C)(C)c1ccc(C(=O)CC(=O)c2cc(Cl)ccc2O)cc1,EC50,[22],136 µM (active)
same,EC50,[23],0.192 µM (active)
same,EC50,[24],1.9 µM (active)
same,EC50,[5],6.61 µM (active)
same,EC50,Streptococcus,2.68 µM (active)
